Experimental data reported in patent US9051592B2, “Methods of ganglioside production” (Garnet BioTherapeutics, Inc., priority 2012, dated 2015).
Read-outs that look alike come from different tables or passages of the source.

How the values were obtained:
[1] = system: PC12 (rat adrenal medulla tumor) cells; settings: Yuyama et al., FEBS Lett. 580:6972-6976 (2006); cited from earlier work
[2] = system: GBT-ABMSC, Lonza BMSC, Lonza ADSC, dermal fibroblast and GM1 fb cells; assay type: cell-based, Human
[3] = system: Adult Human Bone Marrow Cells
[4] = system: SHSY-5Y, SHSY-S, SK-N-AS, CHO-K1 and HEK293 cells; assay type: cell-based
SK-N-AS = assay type: cell-based
GM1 fibroblast = assay type: cell-based, Human
SHSY-5Y = assay type: cell-based, human
[5] = system: Human bone marrow cells (HBM); settings: HBM 20,000 cells/well, serum-free medium 72 H, chloroquine 48 H
SHSY-S = assay type: cell-based
[6] = system: Affected sheep bone marrow cells (SBM); assay: GM1 induction in affected sheep bone marrow cells by different treatments, CTB-Alexa 488 staining (Table 2); settings: affected SBM 20,000 cells/well, 72 H (Poly-L-Lysine coated coverslips 6 Days)
[7] = system: HT22 (mouse hippocampal) cells; settings: Hirata et al., J. Neurochem. 119:839-847 (2011); cited from earlier work
CHO-K1 = assay type: cell-based, Chinese Hamster
HEK293 = assay type: cell-based, Human
[8] = system: human bone marrow-derived cells (HBM); assay: GM1 up-regulation, CTB-HRP normalized to Alamar Blue (Example 3, FIG. 3); assay type: cell-based
Lonza BMSC = assay: GM1 induction by CLQ treatment, CTB-Alexa488 staining (Table 4); assay type: cell-based, Human; settings: Lonza MSC basal medium + growth supplements, 10,000 per well, CLQ 48-120 hours
Description: Human bone marrow-derived stromal cells, adipose-derived stromal cells, dermal fibroblasts, and fibroblasts from subjects diagnosed with GM1 gangliosidosis, as well as immortalized neuroblastoma cells (SHSY-5Y, SHSY-S and SK-N-AS), Chinese Hamster Ovary cells (CHO-K1), and Human Embryonic Kidney cells (HEK293) were purchased from commercial sources. Cells were cultured on 24 well plates in standard culture medium, at a density of 2000-20,000 cells/well overnight and either maintained in standard culture medium (CONTROL) or treated with chloroquine (CLQ) according to the conditions listed in Table 4 below. Cells were maintained in a tissue culture incubator at approximately 37° C. in a humidified atmosphere comprising approximately 5% CO2 and approximately 21% O2 balanced with N2. After treatment for 48-120 hours, the cells were fixed with 4% paraformaldehyde and stained with CTB-Alexa488 to detect GM1 ganglioside. Extensive GM1 accumulation is evident in most cells types compared to controls maintained in standard culture media alone. (FIGS. 10 and 11 and Table 4).

ADSC = assay type: cell-based, Human
Dermal fibroblast = assay type: cell-based, Human
[9] = system: Affected sheep bone marrow cells (SBM)
GBT-ABMSC = assay type: cell-based, Human
[10] = system: Parkinson's disease subjects; settings: short-term treatment; Schneider et al., Neurology 50:1630-1636 (1998); cited from earlier work
[11] = pretreatment; background statement; cited from earlier work
[12] = system: central nervous system lesions in experimental animals; settings: background statement; cited from earlier work
[13] = system: Parkinson's disease subjects; settings: five-year study; Schneider et al., J. Neurol. Sci. 292:45-51 (2010); cited from earlier work

## CCN(CC)CCCC(C)Nc1ccnc2cc(Cl)ccc12 (centres unmarked) [Chloroquine, chloroquine]
[1]
  accumulation in PC12 cells: induce accumulation
[2]
  GM1 signal (CTB-Alexa488) compared to control conditions, FIG. 11: more abundant and intense compared to control conditions for all cell types
[3]
  Cell Death: 10-20%
[4]
  GM1 signal (CTB-Alexa488) compared to control conditions, FIG. 10: more abundant and intense compared to control conditions for all cell types
SK-N-AS
  % Increase in Degree of Staining with induction: 19%
GM1 fibroblast
  % Increase in Degree of Staining with induction: 28%
SHSY-5Y
  % Increase in Degree of Staining with induction: 104%
[5]
  Degree of GM1 Staining: +++++
[5]; listed as CLQ
  Degree of GM1 Staining: most intense staining
SHSY-S
  % Increase in Degree of Staining with induction: 19%
[6]; listed as CLQ
  Degree of GM1 Staining: also induced GM1, but not as much as CLQ/NIM
[7]
  GM1 levels in HT22 cells: only moderately increased GM1 levels
CHO-K1
  % Increase in Degree of Staining with induction: 83%
HEK293
  % Increase in Degree of Staining with induction: 15%
[8]
  up-regulation of GM1 expression (CTB-HRP normalized to Alamar Blue) versus control: approximately 8 fold
Lonza BMSC
  % Increase in Degree of Staining with induction: 119%
ADSC
  % Increase in Degree of Staining with induction: 28%
Dermal fibroblast
  % Increase in Degree of Staining with induction: 63%
SHSY-5Y cells
  Cell Death: +
[9]
  Degree of Cell Death: +
GBT-ABMSC
  % Increase in Degree of Staining with induction: 65%

## CCCCCCCCCCCCC/C=C/[C@@H](O)[C@H](CO[C@@H]1O[C@H](CO)[C@@H](O[C@@H]2O[C@H](CO)[C@H](O[C@@H]3O[C@H](CO)[C@H](O)[C@H](O[C@@H]4O[C@H](CO)[C@H](O)[C@H](O)[C@H]4O)[C@H]3NC(C)=O)[C@H](O[C@]3(C(=O)O)C[C@@](O)(CO)[C@@H](NC(C)=O)[C@H]([C@H](O)CO)O3)[C@H]2O)[C@H](O)[C@H]1O)NC(=O)CCCCCCCCCCCCCCCCC [GM1]
[10]
  symptom reduction: significant symptom reduction
[11]
  damage resulting from neurotoxin exposures: inhibits damage
[12]
  recovery from central nervous system lesions: significant biochemical and behavioral recovery
[13]
  clinical benefit of long-term use: may provide some clinical benefit
  safety of long-term use: safe

## PDGF
[9]
  Degree of Cell Death: −

## N[C@H]1C(O)O[C@H](CO)[C@@H](O)[C@@H]1O (some centres unmarked) [Glucosamine, glucosamine]
[6]
  Degree of GM1 Staining: also induced GM1, but to a lesser degree

## O=C[C@H](O)[C@@H](O)[C@@H](O)[C@H](O)CO [Switch from No glucose to galactose, galactose]
SHSY-5Y cells
  Cell Death: −
